Laboratory results as given in patent US20200164005A1, “PHARMACEUTICAL COMPOSITIONS OF A BILE ACID DERIVATIVE AND MICROBIOME AND USES THEREOF” (Intercept Pharmaceuticals, Inc., priority 2017, published 2020).

Experiments:
[1] = tested on: small intestinal microbiota; test: 16S tagged sequencing of small intestinal and fecal microbiota of OCA-treated mice; assay type: in vivo; conditions: 10 mg/kg OCA, 14 days
Description: FIG. 60: The effect of OCA on the composition of the proximal and distal small intestinal, as well as the feces, microbiota of mice based on 16S tagged sequencing.
FIG. 63: Box and whisker plots of differentially abundant taxa in the distal small intestine of mice in response to treatment with OCA relative to two controls. S24-7, Clostridiaceae, and Turibacter are differentially abundant between the MC and OCA groups (fdr=0.1759, 0.04503, and 0.2332, respectively); Sutterella and Akkermansia are differentially abundant between the control and OCA groups (fdr=0.3199 for both).
The bacterial species that increase most prominently upon OCA treatment have been reported to represent a significant proportion of the small intestinal microbiota, but are very minor constituents in stool. For example, Streptococci represent as much as 20% of the human small intestinal microbiota by 16S tagged sequencing (Dlugosz et al., Sci Rep-Uk, 5 (2015)); El Aidy et al., Curr Opin Biotechnol., 32, 14-20 (2015)). […] To determine whether OCA treatment can alter the gut microbiota composition specifically in the small intestine, mice were treated with OCA for 14 days, the microbiota composition in the proximal and distal small intestine, as well as the stool, and quantified bile acids were characterized. […] Also notable was the quantitative difference in the absolute levels of luminal bile acids in the small intestine (approximately 100-fold greater than in the feces, FIGS. 59A-59C); this is consistent with enterohepatic reabsorption of over 95% of bile acids in the terminal ileum of the small intestine (de Aguiar Vallim et al., Cell Metabolism, 17, 657-669 (2013)).

endogenous bile acids = test: Luminal bile acid concentrations in small intestine and feces of OCA-treated mice; assay type: in vivo
Description: FIG. 54: Bar graphs showing the concentration of taurocholic acid and taurodeoxycholic acid at proximal small bowel and distal small bowel, or in feces, in samples collected from mice treated with control (methylcellulose) or OCA (10 mg/kg/day) for 14 days, followed by no treatment for additional 14 days. Statistically significant differences based on two-tailed Student t-tests are noted: p<0.05 (*) and p<0.01 (**).
FIGS. 59A-59E: Effect of OCA administration on luminal bile acid concentrations in the murine small intestine and feces. […] Mean+SE, *p<0.05, **p<0.01, ***p<0.001. FIGS. 59D-59E show heatmaps of luminal bile acid concentrations in the proximal (FIG. 59D) and distal (FIG. 59E) small intestine.
For example, Streptococci represent as much as 20% of the human small intestinal microbiota by 16S tagged sequencing (Dlugosz et al., Sci Rep-Uk, 5 (2015)); El Aidy et al., Curr Opin Biotechnol., 32, 14-20 (2015)). Some of these bacteria are environmental organisms used in the manufacturing of food introduced into the small intestine with diet, including Streptococcus thermophilus, Bifidobacterium breve, Lactobacillus casei, and Lactococcus lactis (Brigidi et al., International Journal of Food Microbiology, 81, 203-209 (2003); Derrien and van Hylckama Vlieg, Trends Microbiol., 23, 354-366 (2015); Stiles and Holzapfel, International Journal of Food Microbiology, 36, 1-29 (1997)). To determine whether OCA treatment can alter the gut microbiota composition specifically in the small intestine, mice were treated with OCA for 14 days, the microbiota composition in the proximal and distal small intestine, as well as the stool, and quantified bile acids were characterized. Since OCA was prepared in methylcellulose, an additional methylcellulose control group was included due to its previously described effect on fecal bile acid levels (Cox et al., FASEB J 27, 692-702 (2013)).

[2] = tested on: Lactococcus lactis, Streptococcus thermophilus, and Lactobacillus casei/paracasei; test: Minimal inhibitory concentrations (MIC) of bile acids and OCA, aerobic and anaerobic; assay type: cell-based
Description: FIGS. 58A-58B: Minimal inhibitory concentrations (MICs) of selected Gram-positive bacterial species in response treatment with two endogenous bile acids and OCA. […] N=3 per measurement. […] N=3 per measurement.
a (Begley et al., FEMS Microbiol Rev. 29, 625-651 (2005)), and conducted genomic analysis is consistent with the notion that specific Gram-positive taxa become proportionally more abundant during OCA administration due to enhanced proliferation. FXR-dependent inhibition of endogenous bile acid synthesis by OCA may reduce the growth inhibitory effects on Gram-positive bacterial species that are normally sensitive to bile acids. To determine if the three bacterial species with the greatest representation of pathways associated with OCA (FIG. 57A) are sensitive to bile acids, the species-specific minimal inhibitory concentrations (MIC) of the two most predominant bile acids in the human small intestine, glycochenodeoxycholic acid (GCDCA) and glycocholic acid (GCA) were determined (FIG. 58A). Since the environment of the small intestinal lumen may transition from an aerobic to anaerobic state along its length (He et al., Proceedings of the National Academy of Sciences of the United States of America, 96, 4586-4591 (1999)), MICs were determined under both aerobic and anaerobic conditions. […] Consistent with this notion, it has been shown that bile salt hydrolases (BSH), enzymes that are unique to bacteria resident in the mammalian gut where they can enhance bile acid tolerance (Begley et al., FEMS Microbiol Rev. 29, 625-651 (2005)), are missing from the genome of S. thermophilus, which is induced by OCA. It can be supported by showing that these species are sensitive to growth inhibition in vitro when exposed to physiologically-relevant concentrations of conjugated bile acids found in the small intestine. […] Since OCA is a bile acid analogue possibly capable of inhibiting bacterial growth, the MICs of OCA for the same bacterial species were determined (FIG. 58B). […] These findings support the notion that OCA treatment leads to the increased growth of bile acid sensitive bacterial taxa by suppressing endogenous bile acid synthesis.

CC[C@H]1[C@@H](O)[C@@H]2[C@H](CC[C@]3(C)[C@@H]([C@H](C)CCC(=O)O)CC[C@@H]23)[C@@]2(C)CC[C@@H](O)C[C@@H]12 [OCA, 3α,7α-dihydroxy-6α-ethyl-5β-cholan-24-oic acid]
Clostriciaceae family of Firmicutes in proximal and distal small intestine [1]: increased abundance | Clostriciaceae family of Firmicutes in the feces [1]: not in the feces | overall composition of the small intestinal microbiota ([1]; versus water and methylcellulose): different from both control groups | OCA in the small intestinal lumen of treated mice (endogenous bile acids; 10 mg/kg OCA, 14 days): detectable | contribution of OCA to the total concentration of bile acids in the small intestinal lumen (endogenous bile acids; 10 mg/kg OCA, 14 days): contributed minimally | luminal endogenous primary bile acids in the feces (endogenous bile acids; 10 mg/kg OCA, 14 days): no effect | luminal endogenous primary bile acids in proximal and distal small intestine (endogenous bile acids; 10 mg/kg OCA, 14 days, greatest in proximal small intestine): significant reduction | luminal cholic and taurocholic acids (endogenous bile acids; 10 mg/kg OCA, 14 days, small intestine): largest consistent decreases | levels of taurocholic and taurodeoxycholic acids in proximal and distal small intestine (endogenous bile acids; OCA 10 mg/kg/day, day 14): reduction | levels of taurocholic and taurodeoxycholic acids in the colon (feces) (endogenous bile acids; OCA 10 mg/kg/day, day 14): not in the colon (feces) | levels of taurocholic and taurodeoxycholic acids in the proximal small intestine after cessation (endogenous bile acids; day 28, two weeks after cessation of OCA): continued reduction | inhibition of growth of the three bacterial species (MIC determination) [2]: able to inhibit growth of all three bacterial species | inhibition of growth at OCA concentrations calculated to be reached in the human small intestine ([2]; ˜40 mM at a 10 mg/day dose): minimal to no inhibition of growth
